Test results as given in patent publication US6989397B1, “Iron chelators and uses thereof” (University of Queensland, priority 1999, dated 2006).
Several values for one entry are separate records, joined by “and”; a condition that tells them apart may be missing. Equal entries are not always repeated. Where two headings read alike, the source gives them in different places.

Assays:
[1] = tested on: iron-regulatory proteins (IRPs); assay: iron regulatory protein gel-retardation assay (IRP-RNA binding activity); format: cell-based, human; conditions: SK-N-MC cells, 20 hr incubation; chelators 25 μM, DFO 100 μM, FAC 100 μg/ml
Description: FIG. 5. The effect of the chelators on the RNA-binding activity of the iron-regulatory proteins (IRPs) in the SK-N-MC neuroepithelioma cells. Cells were incubated for 20 h with either medium alone (control), ferric ammonium citrate (FAC: 100 μg/ml), DFO (100 μM), or the other chelators (25 μM).
A gel-retardation assay was used to measure the interaction between the IRPs and IRE using established techniques (Leibold et al., […]. Proc. Natl. Acad. Sci. USA 85 2171–5; Müllner et al., 1989 Cell 58 373–82). Briefly, after incubation with medium alone (control) or medium containing ferric ammonium citrate (100 μg/ml: Aldrich Ltd., Sydney, Australia) or the chelator. […] cells were washed with ice-cold phosphate-buffered saline (PBS) and lysed at 4° C. in 40 μl of ice-cold Munro extraction buffer (10 mM HEPES, pH 7.6, 3 mM MgCl2, 40 mM KCl, 5% glycerol, 1 MM dithiothreitol and 0.5% Nonidet P-40). After lysis, the samples were then centrifuged at 10,000 rpm for 3 mins at 4° C. to remove nuclei and the supernatant stored at −70° C. Frozen cytoplasmic extracts were thawed on ice and then centrifuged at 15,000 rpm for 10 min at 4° C. The protein concentration of the soluble supernatant was determined using the BioRad protein assay (BioRad Ltd., USA). Samples of cytoplasmic extracts were diluted to a protein concentration of 100 μg/ml in Munro buffer without Nonidet P-40 and 1 μg aliquots were analyzed for IRP by incubation with 0.1 ng (approximately 1×10^5 cpm) of ^32P-labelled pGL66 RNA transcript (Leibold et al., 1988). The riboprobe was transcribed in vitro from linearized plasmid templates using SP6 RNA polymerase in the presence of α-^32P UTP (Dupont, NEN). This latter reaction was performed using the Promega Riboprobe In Vitro Transcription Kit (Promega, Madison, Wis., USA). The probe was subsequently purified on a 6% urea/PAGE gel. To form RNA-protein complexes, cytoplasmic extracts containing 1 μg of protein were incubated for 10 mins at room temperature with the ^32P-labelled riboprobe. Unprotected probe was degraded by incubation with 1 U of RNAse T1 for 10 mins at room temperature. Heparin (Sigma) at a final concentration of 5 mg/ml was then added and incubated with the extract for another 10 min at room temperature to exclude non-specific binding. RNA-protein complexes were analyzed in 6% non-denaturing polyacrylamide gels at 4° C. as described by Konarska et al., 1986, Cell 46 845–55. Gels were dried, covered in plastic film and exposed to Kodak XAR films at −70° C. with an intensifying screen.
An important effect of intracellular Fe depletion using DFO is the activation of RNA-binding activity of the iron regulatory proteins (IRP's) (Hentze et al., 1996, Proc. Natl. Acad. Sci. USA 93 8175–82). […] The present inventors examined the effect of a 20 hr incubation with 311, PIH and the PCIH analogues (25 μM) on IRP-RNA binding activity in SK-N-MC cells. In all experiments, DFO (100 μM) was used as a positive control to deplete cells of Fe and increase IRP-RNA binding activity. In contrast, ferric ammonium citrate (FAC: 100 μg/ml) was used to donate Fe to cells and reduce IRP-RNA binding.

[2] = tested on: SK-N-MC neuroepithelioma cells; assay: internalized 59Fe uptake from 59Fe-transferrin; format: cell-based, human; conditions: SK-N-MC; 3 hrs at 37° C.; chelators 50 μM, DFO 100 μM; FIG. 2B screening experiment
Description: The effect of chelators on ^59Fe uptake from ^59Fe-Tf and ^59Fe release from prelabelled cells was studied using standard procedures reported previously (Richardson et al., 1994, J. Lab Clin. Med. 124 660-71). The amount of ^59Fe internalized by the cells was measured by incubation with the general protease pronase (1 mg/ml) for 30 min at 4° C. to remove membrane-bound ^59Fe and Tf (Richardson et al., 1990; Baker et al., 1998, Biochim. Biophys. Acta 1380 21-30). […] To determine the ability of the chelators to inhibit ^59Fe uptake from ^59Fe-Tf (0.75 μM). […] Table 2. The effect of DFO, 311, […], or PCBHH on internalized ^59Fe uptake from ^59Fe-transferrin by BE-2 neuroblastoma cells, SK-N-MC neuroepithelioma cells, and SK-Mel-28 melanoma cells. Cells were incubated with the chelators and ^59Fe-transferrin (0.75 μM) for 3 h at 37° C., washed, and incubated for 30 min at 4° C. with pronase (1 mg/ml) to separate the internalized from the membrane-bound ^59Fe. All chelators were screened at a concentration of 50 μM except for DFO which was examined at 100 μM. Results are mean±SD (three determinations) from a typical experiment.

[3] = tested on: SK-N-MC neuroepithelioma cells; assay: 59Fe release from prelabelled cells (iron efflux); format: cell-based, human; conditions: 3 hr labelling, 3 hr reincubation, ligands 50 μM, DFO 100 μM, FIG. 2A screening experiment
Description: The effect of chelators on ^59Fe uptake from ^59Fe-Tf and ^59Fe release from prelabelled cells was studied using standard procedures reported previously (Richardson et al., 1994, J. Lab Clin. Med. 124 660–71). The amount of ^59Fe internalized by the cells was measured by incubation with the general protease pronase (1 mg/ml) for 30 min at 4° C. to remove membrane-bound ^59Fe and Tf (Richardson et al., 1990; Baker et al., 1998, Biochim. Biophys. Acta 1380 21–30).
The efflux of ^59Fe from SK-N-MC cells was examined after a 3 hr labelling period with ^59Fe-Tf (0.75 μM) followed by a 3 hr reincubation in the presence and absence of DFO (100 μM) or the remainder of the ligands at 50 μM (FIG. 2A).
Table 1. The effect of DFO, 311, PCTH, PCBH, or PCBHH on ^59Fe release from BE-2 neuroblastoma cells, SK-N-MC neuroepithelioma cells, and SK-Mel-28 melanoma cells. Cells were labeled for 3 h at 37° C. with ^59Fe-transferrin (0.75 μM), washed, and then reincubated with the chelators for 3 h at 37° C. […] Results are Mean±SD of three determinations in a typical experiment.

[4] = tested on: 59Fe-loaded reticulocytes; assay: mobilisation of 59Fe from 59Fe-loaded reticulocytes (mitochondrial Fe overload model); format: cell-based, rabbit; conditions: for cellular 59Fe mobilized from 59Fe-loaded reticulocytes after 240 min: chelators 200 μM, 240 min of incubation; for cellular 59Fe released from 59Fe-loaded reticulocytes, 1 h reincubation (FIG. 9): chelator concentration 200 μM (range 10–200 μM), reincubated 1 h at 37° C.
Description: (§1) FIG. 7. The effect of reincubation time with the Fe chelators on ^59Fe mobilization from ^59Fe-loaded reticulocytes. The cells were labelled with ^59Fe-transferrin (3.75 μM) in the presence of the heme synthesis inhibitor, succinylacetone (1 mM), and incubated with the cells for 1 h at 37° C. The ^59Fe-labelled reticulocytes were then incubated with the chelators (200 μM) for 15–240 min at 37° C. The results are Mean±SD (3 determinations) in a typical experiment of three performed.
as §1, with “9.” for “7.”, “chelator concentration” for “reincubation time with the Fe chelators”, “(10–200” for “(200”
Reticulocytosis was induced by standard procedures (Richardson, D. R., Ponka, P and Vyoral, D (1996) Blood 87, 3477–3488) in New Zealand white rabbits by repeated phlebotomy by cardiac puncture using a protocol approved by the McGill University Animal Care Committee. Reticulocytes were identified based on staining with new methylene blue, and cell counts were determined using an improved Neubauer counting chamber.
Reticulocytes were obtained from chronically bled rabbits as described above and were incubated with 1 mM succinylacetone (SA: Sigma) to inhibit heme synthesis. After a 15 min preincubation in the presence of SA, ^59Fe-Tf ([…]) was added and incubated with the cells for 1 H at 37° C. with shaking. After this incubation the reticulocytes were washed three times with ice-cold PBS to remove non-specifically bound ^59Fe-Tf. The washed ^59Fe-labelled reticulocytes (30–35 μL) were incubated in buffered salt solution (250 μL final volume) with the apochelators. The SA was present in all incubations with the chelators to prevent the utilization of non-heme ^59Fe for heme synthesis. After the incubation, ^59Fe was measured both in washed reticulocytes and in the medium, and the percentage of ^59Fe mobilized from the reticulocytes was then calculated.

[5] = aqueous solubility; format: physicochemical; conditions: water / aqueous solutions
[6] = tested on: iron-regulatory proteins (IRPs); assay: iron regulatory protein gel-retardation assay (IRP-RNA binding activity); format: cell-based, human
[7] = tested on: SK-N-MC neuroepithelioma cells; assay: 3H-thymidine, 3H-leucine or 3H-uridine incorporation; format: cell-based, human; conditions: 20 hr with chelators 50 μM, DFO 100 μM, then label 2 h, Mean±SD
Description: Labelling of cells with ^3H-thymidine (20 Ci/mmol: Dupont NEN, MA, U.S.A.), ^3H-uridine (42.7 Ci/mmol/Dupont NEN, MA, U.S.A.) and ^3H-leucine (52 Ci/mmol: Dupont NEN) was estimated after precipitation with trichloroacetic acid (TCA). After a 20 hr incubation with the chelators, ^3H-leucine, ^3H-uridine or ^3H-thymidine (1 μCi/ml) were then added for 2 hrs at 37° C. Subsequently, petri dishes containing cell cultures were placed on ice and washed four times with ice-cold Hanks' balanced salt solution (BSS) and the cells detached from the plate using 1 mM EDTA in Ca/Mg-free saline. The cells were then pelleted by centrifugation, the supernatant removed and the pellet frozen at −70° C. After thawing the cells on ice, 1 ml of ice-cold 20% TCA was added and the solution then vortexed and kept on ice for 1 hr with periodic mixing. This solution was then centrifuged at 15,000 rpm for 15 mins at 4° C. and the supernatant removed. The pellet was then washed twice with 1 ml of ice-cold 10% TCA. The pellet was dissolved in 0.5 ml of 1 M NaOH and transferred to scintillation tubes with 3 ml of scintillant. Radioactivity was measured on a β-scintillation counter (LKB Wallace, Finland).
Table 3. The effect of the chelators on ^3H-thymidine, ^3H-leucine, or ^3H-uridine incorporation into SK-N-MC neuroepithelioma cells. Cells were incubated for 20 hr at 37° C. with either DFO (100 μM) or the other chelators (50 μM). Following this, either ^3H-thymidine, ^3H-leucine, or ^3H-uridine (1 μCi/mL) were added and the cells incubated for an additional 2 h at 37° C. (see Methods for details). Results are Mean±SD (4–5 determinations) from a typical experiment of 2–4 experiments performed.

[8] = Fe-overloaded patients (Olivieri et al.); cited from earlier work

Nc1ccc(C(=O)NN=Cc2ccccn2)cc1 [PCAH, 2-pyridylcarboxaldehyde p-aminobenzoyl hydrazone]
IRP-RNA binding activity compared to the control (FIG. 5) [1]: decreased | 59Fe uptake from 59Fe-Tf, % of the control value (FIG. 2B) [2]: no effect | release of cellular 59Fe (FIG. 2A) [3]: did not appreciably increase | cellular 59Fe mobilized from 59Fe-loaded reticulocytes after 240 min ([4]; FIG. 7): 15%

O=C(NN=Cc1ccccn1)c1ccc(O)cc1 [PCHH, 2-pyridylcarboxaldehyde p-hydroxybenzoyl hydrazone]
IRP-RNA binding activity compared to the control (FIG. 5) [1]: decreased | 59Fe uptake from 59Fe-Tf, % of the control value (FIG. 2B) [2]: no effect | release of cellular 59Fe (FIG. 2A) [3]: did not appreciably increase | cellular 59Fe released from 59Fe-loaded reticulocytes, 1 h reincubation (FIG. 9) ([4]; 3 determinations): very low activity | cellular 59Fe mobilized from 59Fe-loaded reticulocytes after 240 min ([4]; FIG. 7): 6%

O=C(NN=Cc1ccccn1)c1ccncc1 [PCIH, 2-pyridylcarboxaldehyde isonicotinoyl hydrazone]
IRP-RNA binding activity compared to the control (FIG. 5) [1]: little effect | 59Fe uptake from 59Fe-Tf, % of the control value (FIG. 2B) [2]: slightly more effective than DFO | cellular 59Fe mobilized from 59Fe-loaded reticulocytes after 15 min ([4]; chelator 200 μM, 15 min incubation, 37° C., FIG. 7, 3 determinations): 21±1% | cellular 59Fe released from 59Fe-loaded reticulocytes, 1 h reincubation (FIG. 9) ([4]; 3 determinations): 31±1% | cellular 59Fe release from reticulocytes as a function of incubation time (FIG. 7), rank in words ([4]; eight compounds, 200 μM, reincubated up to 240 min): most effective

Cl.Cl.O=C(NN=Cc1ccccn1)c1ccncc1 [PCIH-2HCl]
aqueous solubility, in words [5]: most soluble

Cl.O=C(NN=Cc1ccccn1)c1cccs1 [PCTH-HCl]
aqueous solubility, in words [5]: lowest aqueous solubility of the series

Cc1ncc(CO)c(C=NNC(=O)c2ccncc2)c1O [PIH, pyridoxal isonicotinoyl hydrazone, reference compound]
IRP-RNA binding activity compared to the control (FIG. 5) [1]: little effect | IRP-RNA binding activity at higher concentrations ([6]; higher concentrations than 25 μM, not specified): did increase | 3H-Leucine incorporation, % Control [7]: 84 ± 5 % Control | 3H-Thymidine incorporation, % Control [7]: 52 % Control and 52 ± 9 % Control | 3H-Uridine incorporation, % Control [7]: 56 ± 9 % Control | cellular 59Fe released from 59Fe-loaded reticulocytes, 1 h reincubation (FIG. 9) ([4]; 3 determinations): 18±1%

Cc1c(O)c(=O)ccn1C [deferiprone, 1,2-dimethyl-3-hydroxypyrid-4-one]
adverse outcome of treatment of patients [8]: hepatic fibrosis and an increase in liver Fe levels

ferric ammonium citrate [FAC]
IRP-RNA binding activity compared to the control (FIG. 5) [6]: appreciable decrease
